According to patent US20080145313A1, “Compositions and Methods for the Treatment and Prevention of Neoplastic Disorders” (Genesis Research & Development Corporation Limited, priority 2006, published 2008):

These substances were tested on SK-Mel-5 cells (assay: Growth inhibition of siRNA-transfected SK-Mel-5 cells, SYBR Green I DNA content). Details: 10 nM siRNA; standardized against control siRNA.
Format: cell-based, human
Experimental: A549 cells (human lung cancer cell line; ATCC No. CCL-185), SK-MeI-5 cells (human melanoma cell line; ATCC No. HTB-70), MCF-7 cells (human adenocarcinoma cell line; ATCC No. HTB-22), HCT-116 cells (colorectal carcinoma; ATCC CCL-247) and HCT-116 p53 null cells (derived from ATCC No. CCL-247; Bunz et al., Science 282:1497-1501, 1998) were cultured in RPMI 1640 medium with 10% v/v heat-inactivated fetal calf serum (FCS). Cells were seeded at a density of 5×10^4 cells/cm^2 in multi-well tissue culture plates. Sequences of Stealth™ siRNA duplexes (Invitrogen) targeting human ribonucleotide reductase subunit 1 (SEQ ID NO: 22) and subunit 2 (SEQ ID NO; 38) are given in SEQ ID NO: 4830-4832 (DNA), and SEQ ID NO: 5136-5138 (RNA) for RRM1, and SEQ ID NO: 5306-5308 (DNA), and SEQ ID NO: 5303-5305 (RNA) for RRM2. siRNAs were transfected at different concentrations into cells using Lipofectamine™ RNAiMAX transfection reagent (Invitrogen). Non-specific siRNA (SEQ ID NO: 4804 and 4805 (DNA), and SEQ ID NO: 5301 and 5302 (RNA)) were used as controls. The cellular DNA content was measured using a SYBR Green I-based fluorometric assay at 24, 48, 72 and 96 hours after transfection (120 hours for the MCF-7 cells), as follows. At the indicated time points following reverse transfection, cells were harvested and frozen at −80° C. overnight. Cells were thawed and cell lysis buffer (phosphate-buffered saline (PBS) containing 1% Triton X-100, pH 7) and SYBR Green I (1:10^5 V/V; Invitrogen) was added to the wells and incubated overnight in the dark at 4° C.
The following day, cell lysates were mixed thoroughly, and DNA fluorescence was measured with a Wallac Victor^2 plate reader (Turku, Finland) set at an excitation frequency of 485 nm and measuring emission at 535 nm.
siRNA-mediated inhibition of cancer cell growth using siRNA targeting the YBX1 gene (SEQ ID NO: 92) was determined as follows. SK-MeI-5 cells were cultured in RPMI 1640 medium with 10% v/v heat-inactivated fetal calf serum. Cells were cultured as described above and reverse transfected with 0.1, 1.0, 10 and 40 nM (final concentration) of a pool of YBX1-targeting siRNAs (SEQ ID NO: 4982 and 4983 (DNA), and SEQ ID NO: 5277 and 5278 (RNA); referred to as 994 and 995 in FIG. 19) or a non-specific control (SEQ ID NO: 4804 (DNA), and SEQ ID NO: 5301 (RNA); referred to as Stealth 81 ctrl in FIG. 19), and cell growth determined after 120 h by measuring DNA fluorescence with a Wallac Victor^2 plate reader (Turku, Finland) set at an excitation frequency of 485 nm and measuring emission at 535 nm. Growth inhibition by the siRNA pool was standardized against the inhibition obtained with the control siRNAs.
siRNA-mediated RNAi was also determined on a panel of different cell lines. A549, SK-MeI-5, wt HCT-116, HCT-116−/−p53 and MCF-7 cells were transfected with 10 nM siRNAs targeting YBX-1 and growth inhibition determined as described above. The YBX1 siRNAs are given in SEQ ID NO: 4981 to 4985 (DNA) and SEQ ID NO: 5276-5280 (RNA). A non-specific siRNA (SEQ ID NO: 4804 (DNA) and SEQ ID NO: 5301 (RNA)) was used as control. Growth inhibition by the siRNAs, given in Table 14, was standardized against the inhibition obtained with the control siRNA.

Substance | growth inhibition, SK-Mel-5 cells
SEQ ID NO: 4983: siRNA targeting YBX1 (chain 1 TACTGTGGTCGACGCCCATAGGGTC; chain 2 UACUGUGGUCGACGCCCAUAGGGUC; chemistry not given here; one strand in two spellings) | ++ (At least 50% inhibition)
SEQ ID NO: 4982: siRNA targeting YBX1 (chain 1 TTTGCTGGTAATTGCGTGGAGGACC; chain 2 UUUGCUGGUAAUUGCGUGGAGGACC; chemistry not given here; one strand in two spellings) | +++ (At least 70% inhibition)
SEQ ID NO: 4985: siRNA targeting YBX1 (chain 1 CAGCCTAGAGAGGACGGCAATGAAG; chain 2 CAGCCUAGAGAGGACGGCAAUGAAG; chemistry not given here; one strand in two spellings) | ++ (At least 50% inhibition)
SEQ ID NO: 4984: siRNA targeting YBX1 (chain 1 CAAGGTAGACCAGTGAGGCAGAATA; chain 2 CAAGGUAGACCAGUGAGGCAGAAUA; chemistry not given here; one strand in two spellings) | +++ (At least 70% inhibition)
